How the values were obtained:
Assay type in all cases: cell-based, human
[1] = test system: IL-1α; experiment: IL-1α production in culture supernatant of NHEK cells, with or without UVB irradiation (ELISA, per unit protein)
Experimental: (§1) Normal human epidermal keratinocytes (NHEKs) were cultured in HuMedia-KG2 (KG2) medium containing 10% fetal bovine serum, 1% antibiotic and 1% human epidermal keratinocyte growth supplement, in a 37°C, 5% CO2 incubator.
(§2) NHEK cells were seeded on a 96-well plate at a density of 2.5 × 10^4 cells/well in KG2 medium, and incubated for 24 hours. The supernatant was aspirated, the medium was exchanged with KB2 medium containing 0, 25, 50, 100 and 200 µM botryococcene, and culturing was continued for 24 hours, after which the cells were washed with PBS and the medium was exchanged with HBSS. The cells were then irradiated with UVB (280 to 320 nm, 20 mJ/cm^2) and cultured for 24 hours in fresh KB2 medium. The IL-1α and PGE2 expression levels in the culture supernatants were measured using an ELISA measuring kit. The cells were then dissolved in 50 µL of PBS containing 0.5% Triton^R X-100, the protein level was quantified, and the IL-1α and PGE2 production levels per unit protein were calculated.

[2] = test system: NHEK cells; experiment: Cytotoxicity with botryococcene treatment (Neutral Red uptake); details: 24 hours
Experimental: as §1
NHEK cells were seeded on a 96-well plate at a density of 2.5 × 10^4 cells/well in KG2 medium, and incubated for 24 hours. The supernatant was aspirated, the medium was exchanged with HuMedia-KB2 (KB2) medium containing 0, 12.5, 25, 50, 100, 200 and 400 µM botryococcene, and the mixture was incubated for 24 hours. After culturing, the cells were washed with PBS, the medium was exchanged with KB2 medium containing 0.003% Neutral Red, and culturing was carried out for 2 hours. The Neutral Red in the cells was extracted with 1 M HCl in 30% MeOH. The absorbance at 550 nm was measured with a microplate reader.

[3] = test system: MMP-1; experiment: MMP-1 production by NHDF cells treated with supernatant (K-CM) of UVB-irradiated NHEK cells (ELISA, per unit protein)
Experimental: as §1
(§3) Normal human skin fibroblasts (NHDFs) were cultured in DMEM with addition of 10% fetal bovine serum, 1% antibiotic and 1% human epidermal keratinocyte growth supplement, in a 37°C, 5% CO2 incubator.
(§4) NHEK cells were seeded on a 96-well plate at a density of 2.5 × 10^4 cells/well in KG2 medium, and incubated for 24 hours. The supernatant was aspirated, the medium was exchanged with KB2 medium containing 0, 25, 50, 100 and 200 µM botryococcene, and culturing was continued for 24 hours, after which the cells were washed with PBS and the medium was replaced with HBSS. The cells were then irradiated with UVB (280 to 320 nm, 20 mJ/cm^2) and cultured for 24 hours in fresh KB2 medium. After culturing, the supernatant (K-CM) was collected. NHDF cells were seeded on a 96-well plate at a density of 2.0 × 10^4 cells/well in DMEM medium, and incubated for 24 hours. […] The cells were then dissolved in 50 µL of PBS containing 0.5% Triton^R X-100, and the protein level was quantified with a BCA Protein Assay Kit (product of Thermo Fisher Scientific), calculating the type I collagen and MMP-1 production per unit protein.

[4] = test system: NHEK cells; experiment: Protection against cytotoxicity induced by H2O2 (Neutral Red uptake); details: botryococcene 25-200 µM for 24 hours, then 300 µM H2O2 for 1 hour
Experimental: as §1
NHEK cells were seeded on a 96-well plate at a density of 2.5 × 10^4 cells/well in KG2 medium, and incubated for 24 hours. The supernatant was aspirated, the medium was exchanged with KB2 medium containing 0, 25, 50, 100 and 200 µM botryococcene, and incubation was carried out for 24 hours. After culturing, the cells were washed for 1 hour with HBSS containing PBS and 300 µM H2O2, and the cells were then incubated for 24 hours in KB2 medium. After incubation, the cells were washed with PBS, the medium was exchanged with KB2 medium containing 0.003% Neutral Red, and culturing was carried out for 2 hours. After culturing, the cells were washed with PBS. The Neutral Red in the cells was extracted with 1 M HCl in 30% MeOH. The absorbance at 550 nm was measured with a microplate reader.

[5] = test system: PGE2; experiment: PGE2 production in culture supernatant of NHEK cells, with or without UVB irradiation (ELISA, per unit protein)
Experimental: as §1, §2

[6] = test system: NHEK cells; experiment: Fluorescent bead (FluoSpheres) phagocytosis induced by UVB irradiation; details: UVB 20 mJ/cm^2
Experimental: as §1
NHEK cells were seeded on a 96-well plate at a density of 2.5 × 10^4 cells/well in KG2 medium, and incubated for 24 hours. The supernatant was aspirated, the medium was exchanged with KB2 medium containing 0, 25, 50, 100 and 200 µM botryococcene, and culturing was continued for 24 hours, after which the cells were washed with PBS and the medium was replaced with HBSS. The cells were then irradiated with UVB (280 to 320 nm, 20 mJ/cm^2) and cultured for 24 hours in fresh KB2 medium. After replacing the medium with of KB2 medium containing FluoSpheres™ and allowing the cells to stand for 4 hours, they were dissolved with 50 µL of PBS containing 0.5% Triton^R X-100 and the fluorescence of the cell lysate was measured with a microplate reader. The fluorescence of the cell lysate was detected with a fluorescence reader at an excitation/luminous wavelength of 535 nm/590 nm. The cells were then dissolved in 50 µL of PBS containing 0.5% Triton^R X-100, the protein level was quantified, and the fluorescence intensity per unit protein was normalized.

[7] = test system: type I collagen; experiment: Type I collagen production by NHDF cells treated with supernatant (K-CM) of UVB-irradiated NHEK cells (ELISA, per unit protein)
Experimental: as §1, §3, §4

[8] = test system: intracellular ROS; experiment: Intracellular reactive oxygen species removal (DCFH-DA fluorescence per unit protein); details: NHEK cells, botryococcene 25-200 µM for 24 hours
Experimental: as §1
NHEK cells were seeded on a 96-well plate at a density of 2.5 × 10^4 cells/well in KG2 medium, and incubated for 24 hours. The supernatant was removed, the medium was exchanged with KB2 medium containing 0, 25, 50, 100 and 200 µM botryococcene, and incubation was carried out for 24 hours. After culturing, the cells were washed with PBS, the medium was exchanged with HBSS buffer containing 200 µM H2O2, and culturing was continued for 1 hour. The supernatant was removed and culturing was carried out for 30 minutes in HBSS buffer containing 20 µM DCFH-DA. The fluorescence intensity was measured with a microplate reader ([…]). The cells were then dissolved in 50 µL of PBS containing 0.5% Triton^R X-100, the protein level was quantified, and the fluorescence intensity per unit protein was normalized.

[9] = botryococcene 200 µM, UVB 20 mJ/cm^2
[10] = botryococcene 25 to 100 µM, UVB 20 mJ/cm^2
[11] = NHDF cells with K-CM of UVB-irradiated NHEK cells pretreated with botryococcene 200 µM
[12] = NHDF cells with K-CM of UVB-irradiated NHEK cells pretreated with botryococcene 25 to 100 µM

Compound: C=C[C@@](C)(/C=C/[C@H](C)CC[C@H](C)C(=C)CC[C@H](C)C(=C)C)CC[C@H](C)C(=C)CC[C@H](C)C(=C)C [botryococcene]
- Induction of IL-1α production [1, 9]: not inhibited
- IL-1α production induced by UVB irradiation [1, 10]: inhibited all of the IL-1α and PGE2 production induced by UVB irradiation in a concentration-dependent manner up to 100 µM
- amount of IL-1α produced ([1]; non-UVB-irradiated conditions, botryococcene up to 100 µM): reduced by botryococcene in a concentration-dependent manner up to 100 µM for IL-1α
- cell viability ([2]; botryococcene 0 to 200 µM): No change in cell viability was observed
- cell viability ([2]; botryococcene 400 µM): a notable reduction was observed
- inhibiting effect on acceleration of MMP-1 production [3, 11]: less prominent than with 50 µM or 100 µM
- acceleration of MMP-1 production [3, 12]: inhibited the reduction in collagen production and acceleration of MMP-1 production in a concentration-dependent manner up to 100 µM
- reduction in cell viability by H2O2 treatment [4]: restored by addition of botryococcene, in a concentration-dependent manner
- Induction of PGE2 production [5, 9]: not inhibited
- PGE2 production induced by UVB irradiation [5, 10]: inhibited all of the IL-1α and PGE2 production induced by UVB irradiation in a concentration-dependent manner up to 100 µM
- amount of PGE2 produced ([5]; non-UVB-irradiated conditions, botryococcene up to 50 µM): reduced by botryococcene in a concentration-dependent manner
- effect of inhibiting fluorescent bead phagocytosis ([6]; botryococcene 200 µM): less prominent than with 50 µM or 100 µM
- fluorescent bead phagocytosis by UVB irradiation ([6]; botryococcene 25 to 100 µM): inhibited fluorescent bead phagocytosis by UVB irradiation in a concentration-dependent manner up to 100 µM
- inhibiting effect on reduction in collagen production [7, 11]: less prominent than with 50 µM or 100 µM
- reduction in collagen production [7, 12]: inhibited the reduction in collagen production and acceleration of MMP-1 production in a concentration-dependent manner up to 100 µM
- intracellular ROS concentration ([8]; then 200 µM H2O2 treatment for 1 hour): decrease in a concentration-dependent manner
- intracellular ROS concentration ([8]; without H2O2 treatment): decrease in a concentration-dependent manner
